Source: article PMC9230201, “Sustained Consumption of a Decaffeinated Green Coffee Nutraceutical Has Limited Effects on Phenolic Metabolism and Bioavailability in Overweight/Obese Subjects” (Nutrients, 2022)
Where “and” joins values, the source holds several entries; their conditions need not be identical. Identical values can stand only once.

Key:
[1] = Urinary excretion of phenolic metabolites after intake of the GCPE nutraceutical; settings: for Cumulative urinary excretion, Total 0–24 h / Urinary excretion: urine; for Cumulative urinary excretion, Total 0–24 h: mean ± SEM, n = 9
Experimental: Participants attended the Human Nutrition Unit (HNU) at the Institute of Food Science, Technology and Nutrition (ICTAN-CSIC) on two consecutive days at the beginning of the intervention (week 0) and also on two consecutive days at the end of the study, after consuming daily two doses of the GCPE nutraceutical, providing 600 mg/d phenols, during two months (week 8). […] A licensed health care professional placed an intravenous catheter in the subjects′ nondominant arm and collected a fasting blood sample (baseline, 0 h). Then, subjects drank the soluble GCPE nutraceutical dissolved in 200 mL of water. […] On the sampling days, volunteers remained at the HNU, where a (poly)phenol-free diet was provided. Half an hour after consuming the nutraceutical, volunteers ate a breakfast consisting of ham, cheese, white bread, and a yogurt. Lunch (paella, bread, and yogurt) and an afternoon snack (muffin and yogurt) were eaten 5 and 9 h, respectively, after consuming the nutraceutical. Water and isotonic beverages were freely available. […] The same protocol was followed during visits at the end of the 8-week intervention. On each occasion, two days before each visit to the HNU, subjects consumed a low (poly)phenol diet free of foods containing hydroxycinnamates such as coffee, herbal teas, red wine, artichokes, whole grain cereals, vegetables, fruits and fruit juices, and dried fruits. Only banana, watermelon, cantaloupes, and potatoes were allowed.
(§1) Blood samples were immediately centrifuged (10 min, 3000 rpm, 4 °C) to obtain plasma. […] All biological samples were stored at −80 °C until analysis.
To extract plasma metabolites, 10 µL of 50% (v/v) aqueous formic acid, and 900 µL cold acetonitrile containing 50 µL of 10% (w/v) ascorbic acid were added to 400 µL defrosted plasma. Samples were vortexed and centrifuged (14,000 rpm, 10 min, 4 °C), repeating the extraction and combining the two supernatants, which were reduced to dryness under nitrogen [13]. Dried samples were resuspended in 150 µL of 0.1% aqueous formic acid (containing 10% acetonitrile acidified with 0.1% formic acid), centrifuged (15 min, 14,000 rpm, 4 °C), and the supernatant collected. Urine samples were diluted 1:1 with Milli-Q water and centrifuged (14,000 rpm, 20 min, 4 °C) prior to analysis. Phosphate-buffered saline (3 mL) was added to a representative 300 mg sample of thawed feces, homogenized in an ultrasound bath during 10 min, centrifuged (14,000 rpm, 20 min, 4 °C), and the supernatants collected.
Mobile phase A was 0.1% formic acid in Milli-Q water, and mobile phase B was acetonitrile containing 0.1% formic acid at a 0.3 mL/min flow rate. […] Metabolites were identified based on their retention time using authentic standards when possible. […] Urine concentration of excreted metabolites was normalized to the total volume excreted in each studied interval.
Plasma (30 µL), urine (5 µL) and fecal extracts (5 µL) were filtered through 0.45 µm
cellulose-acetate membrane filters and injected into an Agilent 1200 series LC system
ESI-Jet Stream Technology (Agilent Technologies). A reverse-phase Ascentis Express
C18 (15 cm x 3 mm, 2.7 µm) column (Sigma-Aldrich Quimica, Madrid), preceded by a
phase A was 0.1% formic acid in Milli-Q water, and mobile phase B was acetonitrile
containing 0.1% formic acid at a 0.3 mL/min flow rate. The gradient started with 10% B
at 0 min, 30% B at 10 min, 40% B at 15 min, reaching 50% B at 20 min. The starting
gradient was then re-established in 2 min and maintained for 8 min to re-equilibrate the

[2] = Plasma pharmacokinetics of phenolic metabolites after intake of the GCPE nutraceutical (LC-MS-QToF); settings: for Cmax: mean ± SEM, n = 9
Experimental: Participants attended the Human Nutrition Unit (HNU) at the Institute of Food Science, Technology and Nutrition (ICTAN-CSIC) on two consecutive days at the beginning of the intervention (week 0) and also on two consecutive days at the end of the study, after consuming daily two doses of the GCPE nutraceutical, providing 600 mg/d phenols, during two months (week 8). On each occasion, on the first visit day (Figure 1), subjects arrived at the HNU after an overnight (12 h) fast and provided a urine sample. A licensed health care professional placed an intravenous catheter in the subjects′ nondominant arm and collected a fasting blood sample (baseline, 0 h). Then, subjects drank the soluble GCPE nutraceutical dissolved in 200 mL of water. Subsequently, blood samples were collected in EDTA-coated tubes at 0.5, 1, 1.5, 2, 3, 4, 6, 8, 10, and 11 h. On the sampling days, volunteers remained at the HNU, where a (poly)phenol-free diet was provided. Half an hour after consuming the nutraceutical, volunteers ate a breakfast consisting of ham, cheese, white bread, and a yogurt. Lunch (paella, bread, and yogurt) and an afternoon snack (muffin and yogurt) were eaten 5 and 9 h, respectively, after consuming the nutraceutical. Water and isotonic beverages were freely available. Volunteers were instructed to eat a (poly)phenol-free dinner that night and to attend the HNU on the next day after a 12 h fast. Then, a final blood sample was obtained from the antecubital vein 24 h after consuming the nutraceutical. The same protocol was followed during visits at the end of the 8-week intervention. On each occasion, two days before each visit to the HNU, subjects consumed a low (poly)phenol diet free of foods containing hydroxycinnamates such as coffee, herbal teas, red wine, artichokes, whole grain cereals, vegetables, fruits and fruit juices, and dried fruits. Only banana, watermelon, cantaloupes, and potatoes were allowed.
as §1
To extract plasma metabolites, 10 µL of 50% (v/v) aqueous formic acid, and 900 µL cold acetonitrile containing 50 µL of 10% (w/v) ascorbic acid were added to 400 µL defrosted plasma. Samples were vortexed and centrifuged (14,000 rpm, 10 min, 4 °C), repeating the extraction and combining the two supernatants, which were reduced to dryness under nitrogen [13]. Dried samples were resuspended in 150 µL of 0.1% aqueous formic acid (containing 10% acetonitrile acidified with 0.1% formic acid), centrifuged (15 min, 14,000 rpm, 4 °C), and the supernatant collected.
A reverse-phase Ascentis Express C18 (15 cm × 3 mm, 2.7 µm) column (Sigma-Aldrich Quimica, Madrid, Spain), preceded by a Supelco 55215-U guard column (3 mm × 5 mm, 2.7 µm), was used for separation. Mobile phase A was 0.1% formic acid in Milli-Q water, and mobile phase B was acetonitrile containing 0.1% formic acid at a 0.3 mL/min flow rate. […] Metabolites were identified based on their retention time using authentic standards when possible.

[3] = week 0, GCPE nutraceutical with 300 mg hydroxycinnamic acids
[4] = week 0, first peak where biphasic
[5] = week 8, GCPE nutraceutical with 300 mg hydroxycinnamic acids
[6] = week 8, first peak where biphasic

Compound | Cumulative urinary excretion, Total 0–24 h ([1]; week 0) | Cumulative urinary excretion, Total 0–24 h ([1]; week 8) | Amount excreted in urine, 0- 3 h ([1]; week 0, interval 0–3 h) | Amount excreted in urine, 3-6 h ([1]; week 0, interval 3–6 h) | Amount excreted in urine, 6-9 h ([1]; week 0, interval 6–9 h) | Amount excreted in urine, 9-11 h ([1]; week 0, interval 9–11 h) | Amount excreted in urine, 11-24 h ([1]; week 0, interval 11–24 h) | Amount excreted in urine, 0- 3 h ([1]; week 8, interval 0–3 h) | Amount excreted in urine, 3-6 h ([1]; week 8, interval 3–6 h) | Amount excreted in urine, 6-9 h ([1]; week 8, interval 6–9 h) | Amount excreted in urine, 9-11 h ([1]; week 8, interval 9–11 h) | Amount excreted in urine, 11-24 h ([1]; week 8, interval 11–24 h) | AUC0–24h ([2]; week 0) | Cmax [2, 3] | Tmax (h) or Range [2, 4] | AUC0–24h ([2]; week 8) | Cmax [2, 5] | Tmax (h) or Range [2, 6] | further results
O=C(O)CNC(=O)c1cccc(O)c1 [3′-Hydroxyhippuric acid] | 32 ± 5 µmol | 46 ± 8 µmol | 3 ± 2 µmol | 1.1 ± 0.2 µmol | 4 ± 1 µmol | 5 ± 1 µmol | 11 ± 2 µmol | 4 ± 1 µmol | 2.6 ± 0.7 µmol | 6 ± 2 µmol | 5 ± 1 µmol | 9 ± 2 µmol | 10 ± 3 µM/min | 1100 ± 300 nM | 10.0 ± 0.4 h | 13 ± 3 µM/min | 1300 ± 200 nM | 9.2 ± 0.5 h | Cumulative urinary excretion, Total 0–24 h ([1]; week 0, listed as 3′-hydroxyhippuric acid): 32 µmol; Cumulative urinary excretion, Total 0–24 h ([1]; week 8, listed as 3′-hydroxyhippuric acid): 46 µmol; Amount excreted in urine, TOTAL ([1]; week 0, Table S5 total): 32 ± 5 µmol; Amount excreted in urine, 0 h ([1]; week 8, 0 h (before intake on sampling day)): 18 ± 5 µmol; Amount excreted in urine, TOTAL ([1]; week 8, Table S6 total): 46 ± 8 µmol
O=C(O)CNC(=O)c1ccc(O)cc1 [4′-Hydroxyhippuric acid] | 14 ± 2 µmol | 14 ± 2 µmol | 1.3 ± 0.3 µmol | 0.7 ± 0.1 µmol | 1 ± 0.3 µmol | 0.8 ± 0.2 µmol | 3.8 ± 0.9 µmol | 1.5 ± 0.3 µmol | 0.6 ± 0.1 µmol | 1.2 ± 0.2 µmol | 1.1 ± 0.3 µmol | 2.8 ± 0.6 µmol | 1.2 ± 0.2 µM/min | 80 ± 10 nM | 12 ± 3 h | 1.3 ± 0.2 µM/min | 90 ± 10 nM | 8 ± 2 h | Amount excreted in urine, TOTAL ([1]; week 0, Table S5 total): 14 ± 2 µmol; Amount excreted in urine, TOTAL ([1]; week 8, Table S6 total): 14 ± 2 µmol
O=C(O)Cc1ccc(O)cc1 [4′-Hydroxyphenylacetic acid] | – | – | – | – | – | – | – | – | – | – | – | – | 2 ± 1 µM/min | 2000 ± 1000 nM | 2 ± 2 h | 36 ± 23 µM/min | 7000 ± 3000 nM | 0.6 ± 0.1 h | –
O=C(O)C=Cc1ccc(OC2OC(C(=O)O)C(O)C(O)C2O)cc1 (stereo not drawn) [CoA-4′-glucuronide, Cinnamic acid-4′-glucuronide] | – | – | – | – | – | – | – | – | – | – | – | – | 0.72 ± 0.08 µM/min | 39 ± 2 nM | 1.4 ± 0.3 h | 0.71 ± 0.07 µM/min | 38 ± 2 nM | 2.1 ± 0.2 h | Tmax, second peak ([2]; week 0, biphasic profile): 7.0 ± 0.9 h; Tmax, second peak ([2]; week 8, biphasic profile): 9 ± 2 h
O=C(O)/C=C/c1ccc(OS(=O)(=O)O)cc1 [CoA-4′-sulfate, Cinnamic acid-4′-sulfate] | – | – | – | – | – | – | – | – | – | – | – | – | 0.2 ± 0.2 µM/min | 20 ± 20 nM | 1.7 ± 0.9 h | 0.4 ± 0.2 µM/min | 30 ± 10 nM | – | Tmax, second peak ([2]; week 0, biphasic profile): 6 ± 3 h; Tmax, second peak ([2]; week 8, biphasic profile): 11 ± 3 h
O=C(O)CCc1ccc(OS(=O)(=O)O)c(O)c1 [DHCA-4′-sulfate, 3-(3′-Hydroxyphenyl)propanoic acid-4′-sulfate] | 8 ± 2 µmol | 10 ± 2 µmol | 0.4 ± 0.1 µmol | 0.2 ± 0.04 µmol | 0.5 ± 0.2 µmol | 0.5 ± 0.2 µmol | 2.6 ± 0.8 µmol | 0.6 ± 0.2 µmol | 0.2 ± 0.04 µmol | 0.5 ± 0.1 µmol | 0.6 ± 0.2 µmol | 1.7 ± 0.5 µmol | 2.3 ± 0.5 µM/min | 340 ± 90 nM | 7.9 ± 0.5 h | 2.1 ± 0.4 µM/min | 330 ± 70 nM | 8.4 ± 0.6 h | Urinary excretion ([1]; week 0): 8 µmol/24 h; Urinary excretion ([1]; week 8): 10 µmol/24 h
COc1cc(CCC(=O)O)ccc1O[C@@H]1O[C@H](C(=O)O)[C@@H](O)[C@H](O)[C@H]1O [DHFA-4′-glucuronide, 3-(3′-Methoxyphenyl)propanoic acid-4′-glucuronide] | 5 ± 1 µmol | 7 ± 1 µmol | 0.15 ± 0.05 µmol | 0.16 ± 0.05 µmol | 1 ± 0.4 µmol | 0.8 ± 0.1 µmol | 1.2 ± 0.2 µmol | 0.21 ± 0.06 µmol | 0.34 ± 0.09 µmol | 1 ± 0.2 µmol | 0.8 ± 0.2 µmol | 1 ± 0.3 µmol | 1.1 ± 0.3 µM/min | 130 ± 30 nM | 8.7 ± 0.6 h | 0.8 ± 0.1 µM/min | 120 ± 20 nM | 8.7 ± 0.6 h | Urinary excretion ([1]; week 0): 5 µmol/24 h; Urinary excretion ([1]; week 8): 7 µmol/24 h
COc1cc(CCC(=O)O)ccc1OS(=O)(=O)O [DHFA-4′-sulfate, 3-(3′-Methoxyphenyl)propanoic acid-4′-sulfate] | 10 ± 2 µmol | 9 ± 2 µmol | 0.5 ± 0.1 µmol | 0.5 ± 0.1 µmol | 3.4 ± 1.2 µmol | 2.1 ± 0.5 µmol | 3.5 ± 0.8 µmol | 0.6 ± 0.1 µmol | 0.8 ± 0.2 µmol | 2 ± 1 µmol | 3 ± 1 µmol | 2.6 ± 0.8 µmol | 1.5 ± 0.7 µM/min | 190 ± 80 nM | 8.1 ± 0.4 h | 1.1 ± 0.3 µM/min | 170 ± 50 nM | 8.4 ± 0.6 h | –
COc1ccc(C=CC(=O)O)cc1OS(=O)(=O)O [iFA-3′-sulfate, 4′-Methoxycinnamic acid-3′-sulfate] | 1.1 ± 0.3 µmol | 2.1 ± 0.9 µmol | 0.4 ± 0.1 µmol | 0.07 ± 0.04 µmol | 0.24 ± 0.08 µmol | 0.09 ± 0.03 µmol | 0.4 ± 0.1 µmol | 0.34 ± 0.07 µmol | 0.1 ± 0.03 µmol | 0.32 ± 0.06 µmol | 0.3 ± 0.1 µmol | 1 ± 0.7 µmol | – | – | – | – | – | – | –
Coumaroylquinic acid | 0.14 ± 0.03 µmol | 0.10 ± 0.02 µmol | 0.03 ± 0.01 µmol | 0.015 ± 0.003 µmol | 0.017 ± 0.006 µmol | 0.015 ± 0.004 µmol | 0.06 ± 0.02 µmol | 0.009 ± 0.003 µmol | – | 0.014 ± 0.002 µmol | 0.012 ± 0.004 µmol | 0.06 ± 0.02 µmol | – | – | – | – | – | – | Cumulative urinary excretion, Total 0–24 h ([1]; week 0, listed as coumaroylquinic acid): 0.14 µmol; Cumulative urinary excretion, Total 0–24 h ([1]; week 8, listed as coumaroylquinic acid): 0.10 µmol
Dihydrocoumaroylquinic acid | – | – | – | – | – | – | 0.12 µmol and 0.14 µmol | 0.03 µmol and 0.017 µmol | 0.009 µmol and 0.01 µmol | – | – | 0.09 µmol and 0.12 µmol | – | – | – | – | – | – | Urinary excretion ([1]; week 0): 0.22 µmol/24 h; Urinary excretion ([1]; week 8): 0.17 µmol/24 h
